The subject of this experiment is PBMCs from HIV-infected HLA-A2-positive subjects. The experiment can be described thus: IFNγ ELISpot with PBMCs from HIV-infected HLA-A2 subjects. Conditions: for % donors responding positively in ELISpots: Providence and Mali donors together; for IFNγ ELISpot response, donor H_0912: HLA-A A0201; for IFNγ ELISpot response, donor H_0865: HLA-A A02011; for IFNγ ELISpot response, donor 0015404: A02, A0285, A0286; for IFNγ ELISpot response, donor 0015299 / IFNγ ELISpot response, donor 0018349: A0208; for IFNγ ELISpot response, donor 0015269: A0209, A0231.

[1] abbreviates: cohort #1 Providence, positive donors / 16 donors.
The mark [2] stands for this setting: cohort #1 Providence, peptide 10 μg/ml, overnight 37°C.
The mark [3] stands for this setting: cohort #3 Bamako, Mali, positive donors / 8 donors.
The mark [4] stands for this setting: cohort #3 Bamako, Mali, peptide 10 μg/ml, overnight 37°C.

We go through eight sequences from PMC3522424 (Vaccine, 2012).

Turning to RLEPWKHPG [Peptide 1017], for the setting “peptide 10 μg/ml”, the “% donors responding positively in ELISpots” value worked out at 6.3%. The “Total responses per epitope” value under setting [1] is listed as 1/16. Besides, under setting [2], the “IFNγ ELISpot response, donor H_0912” value is recorded as 29 spots per 10^6 PBMCs and the “IFNγ ELISpot response, donor H_0865” value is reported as “- (ELISpot responses that fall below this cutoff point are indicated with a dash mark)”.
In the case of WLWYIKIFI [Peptide 3002], the “% donors responding positively in ELISpots” value (peptide 10 μg/ml) was determined as 12.5%. The “Total responses per epitope” value under setting [3] is given as 1/8. Further, under setting [4], the “IFNγ ELISpot response, donor 0015404” value was found to be 63 spots per 10^6 PBMCs; the “IFNγ ELISpot response, donor 0015299” value is given as “- (ELISpot responses that fall below this cutoff point are indicated with a dash mark)”; the “IFNγ ELISpot response, donor 0018349” value is “- (ELISpot responses that fall below this cutoff point are indicated with a dash mark)”; the “IFNγ ELISpot response, donor 0015269” value is reported as “- (ELISpot responses that fall below this cutoff point are indicated with a dash mark)”.
Regarding RTLNAWVKV [Peptide 3003], the “% donors responding positively in ELISpots” value (peptide 10 μg/ml) is 25.0%. The “Total responses per epitope” value under setting [3] is listed as 2/8. Moreover, under setting [4], the “IFNγ ELISpot response, donor 0015404” value was determined as 43 spots per 10^6 PBMCs; the “IFNγ ELISpot response, donor 0015299” value was “- (ELISpot responses that fall below this cutoff point are indicated with a dash mark)”; the “IFNγ ELISpot response, donor 0018349” value is reported as “- (ELISpot responses that fall below this cutoff point are indicated with a dash mark)”; the “IFNγ ELISpot response, donor 0015269” value was “- (ELISpot responses that fall below this cutoff point are indicated with a dash mark)”.
For SAEPVPLQL [Peptide 2003], the “% donors responding positively in ELISpots” value (peptide 10 μg/ml) came to 50.0%. Under setting [3], the “Total responses per epitope” value is 4/8. For the same sequence, under setting [4], the “IFNγ ELISpot response, donor 0015404” value was determined as 50 spots per 10^6 PBMCs; the “IFNγ ELISpot response, donor 0015299” value worked out at 25 spots per 10^6 PBMCs; the “IFNγ ELISpot response, donor 0018349” value amounted to 25 spots per 10^6 PBMCs; the “IFNγ ELISpot response, donor 0015269” value is “- (ELISpot responses that fall below this cutoff point are indicated with a dash mark)”.
Turning to GIKPVVSTQL [Peptide 1001], for the setting “peptide 10 μg/ml”, the “% donors responding positively in ELISpots” value is on record as 20.8%. Under setting [1], the “Total responses per epitope” value is on record as 2/16. Also, under setting [2], the “IFNγ ELISpot response, donor H_0912” value is given as 903 spots per 10^6 PBMCs and the “IFNγ ELISpot response, donor H_0865” value is on record as “- (ELISpot responses that fall below this cutoff point are indicated with a dash mark)”. The “IFNγ ELISpot response, donor H_0854” value (cohort #1 Providence, HLA-A A02011, A3401, peptide 10 μg/ml, overnight 37°C) was 75 spots per 10^6 PBMCs. The “Total responses per epitope” value under setting [3] is 3/8. Besides, under setting [4], the “IFNγ ELISpot response, donor 0015404” value came to 111 spots per 10^6 PBMCs; the “IFNγ ELISpot response, donor 0015299” value is recorded as 53 spots per 10^6 PBMCs; the “IFNγ ELISpot response, donor 0018349” value came to 37 spots per 10^6 PBMCs; the “IFNγ ELISpot response, donor 0015269” value is given as “- (ELISpot responses that fall below this cutoff point are indicated with a dash mark)”.
For ILKEPVHGVY [Peptide 1249], the “Subjects with a positive response” value (cohort #2 Providence, eight subjects) amounted to 37.5%. In addition, for the setting “cohort #2 Providence, positive donors / 8 donors”, the “Total responses per epitope” value is 3/8. In addition, the “IFNγ ELISpot response, donor 0517001” value (cohort #2 Providence, A2, A3, B44, Cw05, Cw07, peptide 10 μg/ml, overnight 37°C) came to 117 spots per 10^6 PBMCs. Besides, for the setting “cohort #2 Providence, A2, A30, B39, peptide 10 μg/ml, overnight 37°C”, the “IFNγ ELISpot response, donor 0902991” value came to 2380 spots per 10^6 PBMCs.
PLQLPPLERL [Peptide 2004]: the “% donors responding positively in ELISpots” value (peptide 10 μg/ml) was 50.0%. The “Total responses per epitope” value under setting [3] is 4/8. Under setting [4], the “IFNγ ELISpot response, donor 0015404” value amounted to 59 spots per 10^6 PBMCs; the “IFNγ ELISpot response, donor 0015299” value was determined as 36 spots per 10^6 PBMCs; the “IFNγ ELISpot response, donor 0018349” value was 37 spots per 10^6 PBMCs; the “IFNγ ELISpot response, donor 0015269” value was “- (ELISpot responses that fall below this cutoff point are indicated with a dash mark)”.
In the case of DIQKLVGKL [Peptide 1010], under “PBMCs from HIV-1-infected HLA-A2 subjects, Providence and/or Bamako as stated”, the “IFNγ ELISpot response, stated in words” value is listed as “elicited IFNγ ELISpot responses”. The “% donors responding positively in ELISpots” value (peptide 10 μg/ml) came out at 6.3%. The “Total responses per epitope” value under setting [1] is on record as 1/16. Moreover, under setting [2], the “IFNγ ELISpot response, donor H_0912” value is given as “- (ELISpot responses that fall below this cutoff point are indicated with a dash mark)” and the “IFNγ ELISpot response, donor H_0865” value was “- (ELISpot responses that fall below this cutoff point are indicated with a dash mark)”. In addition, the “IFNγ ELISpot response, donor H_0836” value (cohort #1 Providence, HLA-A A02011, A2901, peptide 10 μg/ml, overnight 37°C) amounted to 64 spots per 10^6 PBMCs.
